# In paper PMC4062444, “Mechanisms of U87 Astrocytoma Cell Uptake and Trafficking of Monomeric versus Protofibril Alzheimer’s Disease Amyloid-β Proteins” (PLoS ONE, 2014):
# Structures can show the parent of a compound that is named as a salt.
# Assays:
# [1] = tested on: U87 human brain astrocytoma cell line; experiment: Uptake of HiLyte Fluor555-tagged Aβ42 peptides by U87 cells (confocal microscopy); assay type: cell-based; conditions: for reduction of oAβ42 uptake by U87 cells / reduction of sAβ42 uptake by U87 cells: inhibitor pretreatment (5 mM amiloride 30 min; 300 nM wortmannin 1 h; 1 mM MβCD 30 min), integrated intracellular fluorescence vs mock-treated cells, >25 cells in each of three experiments; for reduction of oAβ42 uptake by U87 cells: then 0.4 µM HiLyte Fluor555-oAβ42 2 h at 37°C; for reduction of sAβ42 uptake by U87 cells: then 0.4 µM HiLyte Fluor555-sAβ42 2 h at 37°C; for effect of Dyn 1 dominant-negative K44A mutant on uptake: U87 cells expressing GFP-tagged Dyn1 K44A, 0.4 µM peptide 2 h at 37°C
# Method: U87 cells were seeded on coverslips and grown at 37°C overnight in complete medium. Uptake experiments were initiated by incubating cells at 37°C with 0.4 µM HiLyte Fluor555-tagged Aβ42 peptides for 2 h, which were diluted in imaging medium (α-MEM without phenol red supplemented with 20 mM HEPES, pH 7.4, and 5% FBS). Cells were subsequently washed three times with ice-cold PBS, fixed with 3.7% PFA for 20 min and stained with 1 µg/ml DAPI diluted in PBS containing 0.1% saponin for 15 min at room temperature. Then, cells were mounted with a mounting solution containing 50% glycerol and 50% PBS. For endocytosis inhibition experiments, cells were pretreated with various endocytotic inhibitors with indicated times followed by Aβ42 peptides uptake in the presence or absence of these inhibitors.
# Briefly, in most cases, the integrated intracellular signals were determined from a 2D projection image of the fluorescence intensities of a Z-stack lacking the most bottom and top planes as they mostly contain plasma membrane signals. The cell outline in each plane was determined by increasing the brightness of the image. In some cases, bright field images were also taken to help identify the cell outlines. The integrated fluorescence within the cell was background-corrected by subtraction of the fluorescence signal surrounding the cell under analysis and its value was then normalized to the mean (average) of the control cells set to 100. For plain cells in the absence or presence of various pharmacological treatment, all intact cells in each image field were used for quantification of Aβ uptake; for cells transfected with plasmids, only the positively transfected cells were used for quantification of Aβ uptake, which was estimated from the EGFP signal in green channel.
# astrocytic U87 cells = conditions: 20 µM Aβ, cited from earlier work
# Description: We assumed that U87 cells tolerated the toxic effects of Aβ42 species better than the neurons, particularly because we used relatively low concentrations of Aβ peptides, which could be rapidly cleared by U87 cells and produced negligible cellular toxicity. This property assigns a neuronal protection role to astrocytes because they can promptly clear Aβ ...
# U87 cells [2] = tested on: U87 cells
# Method: Cells maintained in the serum free medium without Aβ were used as negative control. Following addition of 20 µl MTS reagent into each well, plates were incubated at 37°C for 4 h. The formazan product was quantified by measuring absorbance at 490 nm with a Microplate Reader (Molecular Devices, Sunnyvale, CA, USA). All the experiments were repeated three times.
# ThT fluorescence assay = assay type: physicochemical; conditions: 10 µM ThT in deionized water, pH 7.4; ex 450 nm, em 482 nm; Aβ42 0 to 30 µM
# Method: The assay was performed according to a standard protocol. A 200 µM aqueous Thioflavin T (ThT) was prepared and filtered through 0.22 µm filter. For measurement, Aβ42 samples (monomers or oligomers) were prepared in 10 µM ThT/deionized water solution, pH 7.4. Immediately after mixing, ThT fluorescence of samples was measured with the excitation wavelength at 450 nm and emission wavelength at 482 nm with 470 nm cut-off by a Microplate Reader (Molecular Devices, Sunnyvale, CA, USA).
# U87 cells [3] = experiment: Localization of internalized Aβ42 within the endolysosomal system; assay type: cell-based, human; conditions: live-cell confocal; for fraction transported into early endosomes (EGFP-Rab5): U87 cells transfected with EGFP-Rab5, 0.4 µM peptide for 15 min, 30 min, 1 h or 2 h; for fraction localized to Lysotracker Green positive vesicles (lysosomes): U87 cells, 0.4 µM peptide for 30 min to 3 h, 50 nM LysoTracker Green
# Method: The trafficking of fluro-tagged monomeric and oligomeric Aβ42 was measured as follows. To examine the localization in early endosomes, cells were transfected with EGFP-Rab5 plasmid to label early endosomes. 24 h after transfection, cells were treated with Aβ42 peptides for indicated time periods. After changing with the fresh imaging medium, live cell imaging was then taken using a confocal microscope with an objective heater (set at 37°C). To examine the localization of peptides in lysosomes, plain cells were first treated with Aβ42 peptides for indicated time periods, and 30 min before taking imaging, lysotracker Green were supplemented in the incubation medium (50 nM) to label lysosomes. Afterwards, fresh medium was changed and live cell imaging was taken.
# Images were deconvolved using AutoQuant, a 50-pixel-wide rolling-ball subtraction algorithm was subsequently used to remove background noise. The sub-stacks of 3 sections spanning 0.4 µm were generated and imported to ImageJ for analysis. Manders’ coefficient was calculated using ImageJ plugin “JACop”. The percentage was scored as the Aβ puncta signals that are positive for EGFP-Rab5 or Lysotracker Green signals with respect to the total number of Aβ puncta.
# U87 cells [4] = tested on: U87 cells; remark: listed apart in the source
# Method: Cells were incubated in fresh DMEM containing 0.4 µM fluro-tagged Aβ42 monomers or oligomers for 2 h. After extensively wash, cells were chased in fresh completed medium with indicated times up to 72 hours. Cells were subsequently fixed, stained with DAPI and mounted as described above. Images acquisition and analysis were performed as described below.
# Estimation of the half-life and rate constants for degradation of Aβ42 peptides were made by fitting data using a single-phase exponential decay equation (Origin, ver. 6.0).
# [5] = Transmission electron microscopy of oligomer preparation; assay type: physicochemical; conditions: TEM, 100 µM oAβ42, 1% uranyl acetate stain, 32,000×
# Method: Aβ42 oligomers were applied to formvar-coated 300-mesh copper grids for 2 min and excess fluid was filtered off. The samples were then stained with 1% uranyl acetate for 1 min, excess fluid was filtered off and the grids were examined with H-8100 transmission electron microscope (Hitachi, Tokyo, Japan) operated at 150 KV and 32,000× magnification.
compound,measurement,setting,value
O=C(N/N=C/c1ccc(O)c(O)c1)c1cc2ccccc2cc1O [Dynasore],oAβ42 entry after Dynasore treatment,"[1]; Dynasore pretreatment, then oAβ42 2 h at 37°C, confocal microscopy",almost entirely blocked
same,internalization of sAβ42 after Dynasore treatment,"[1]; Dynasore pretreatment, then sAβ42 2 h at 37°C, confocal microscopy",strongly blocked
"N=C(N)NC(=O)c1nc(Cl)c(N)nc1N [amiloride, Amiloride hydrochloride hydrate]",reduction of oAβ42 uptake by U87 cells,[1],92%
same,reduction of sAβ42 uptake by U87 cells,[1],61%
COC[C@H]1OC(=O)c2coc3c2[C@@]1(C)C1=C(C3=O)[C@@H]2CCC(=O)[C@@]2(C)C[C@H]1OC(C)=O [wortmannin],reduction of oAβ42 uptake by U87 cells,[1],37%
same,reduction of sAβ42 uptake by U87 cells,[1],55%
"Aβ: Aβ used by Wang et al. (ref 36, amyloid-beta1–42) on U87 cells",viability of U87 cells,astrocytic U87 cells; autophagic cell death,did decrease
same,apoptosis of U87 cells,astrocytic U87 cells,not induced to undergo apoptosis
Methyl-β-cyclodextrin [MβCD],reduction of oAβ42 uptake by U87 cells,[1],48%
same,reduction of sAβ42 uptake by U87 cells,[1],46%
"oAβ42: protofibril, an oligomeric assembly of Aβ42 prepared from sAβ42 at pH 2.0, 37°C, 24 h",U87 cell growth / viability,U87 cells [2],not inhibited
same,effect of Dyn 1 dominant-negative K44A mutant on uptake,[1],no effect
same,ThT fluorescence after titration with Aβ42 solution,ThT fluorescence assay,increased in a nearly linear-manner
same,fraction transported into early endosomes (EGFP-Rab5),U87 cells [3],low fraction
same,fraction localized to Lysotracker Green positive vesicles (lysosomes),U87 cells [3],increased with prolonged Aβ42 treating time
same,half-time (t0.5) of degradation in U87 cells,U87 cells [4],8.31 h
same,average length of oligomers on electron micrographs,[5],< 150 nm
same,diameter of oligomers on electron micrographs,[5],approximately 5 nm
sAβ42: soluble monomeric HiLyte Fluor555-labeled Aβ42 (Anaspec) dissolved in 0.1% NH4OH,U87 cell growth / viability,U87 cells [2],not inhibited
same,effect of Dyn 1 dominant-negative K44A mutant on uptake,[1],no effect
same,ThT fluorescence after titration with Aβ42 solution,ThT fluorescence assay,basal fluorescence level
same,fraction transported into early endosomes (EGFP-Rab5),U87 cells [3],low fraction
same,fraction localized to Lysotracker Green positive vesicles (lysosomes),U87 cells [3],increased with prolonged Aβ42 treating time
same,half-time (t0.5) of degradation in U87 cells,U87 cells [4],2.68 h
